Test results taken from US20130072448A1, “Drug Combination Comprising A Glycolysis Inhibitor And A Tyrosine Kinase Inhibitor” (URIFER LTD., priority 2011, published 2013).

Columns and labels:
[1] = system: human foreskin cells (FS11); test: Dead cells fraction by FACS (PI), normal FS11 cells; format: cell-based; conditions: up to 1000 μM DG and 1 μM compound 0260, alone or in combinations
Description: (§1) Florescence assisted cell sorting (FACS) was performed as described in Pasder O, et al. [Pasder O, et al. Oncogene 2006; 25(30):4194-206]. Cells were rinsed twice with cold PBS, and then harvested by treatment with trypsin. Suspended cells were washed twice in 10 ml cold PBS and centrifuged at 500 g for 5 min. In cell cycle analyses, the pellet was resuspended in 200 μl cold PBS and cells were stained in the dark with 200 μl propidium iodide (PI) solution (20 mM Tris, pH 8, 1 mM NaCl, 0.1% (v/v) NP-40, 1.4 mg/ml RNase A, 0.05 mg/ml PI) for 30 min at […]. In experiments to determine the fraction of dead cells in a population of cells, the detergent NP-40 was omitted. The total cellular DNA content was determined using a Becton Dickinson flow cytometer (FACSCalibur). The data were analyzed using Cell Quest Pro software (Becton Dickinson) and ModFit LT software.
(§2) To study the effect of various combinations of Fer and glycolysis inhibitors on cell cycle progression, various concentrations of 0260 and DG alone and in combination were tested in Hep3B liver cancer cells and on human foreskin cells (FS11) as a non-cancer controls.

[2] = system: HCT116 colon cancer cells; test: Dead cells fraction by FACS (PI), HCT116; format: cell-based; conditions: compounds alone or in combination
Description: as §1

Hep3B liver cancer cells = test: Dead cells fraction by FACS (PI), Hep3B; format: cell-based, human; conditions: compounds alone or in combination
Description: as §1, §2

Fer = molecular target: T1, Fer (Homo sapiens, UniProt P16591); test: in-vivo Fer activity assay: auto-phosphorylation of Fer in HCT116 CC cells (IP, anti-phosphotyrosine western blot); format: cell-based; conditions: serum deprived 24 h with 2 μM 0260, 20 mM H2O2 15 min before harvest
T1 construct: endogenous in cells; host or cells: HCT116 colon carcinoma cells
Description: HCT116 CC cells were deprived of serum for 24 h in the presence of 2 μM 0260 or 0.5% DMSO (the solvent). 15 min before harvest cells were treated with 20 mM H2O2— for activation and auto-phosphorylation of Fer. Protein lysates were prepared from cells: starved in the presence of DMSO and treated with H2O2 (1), starved in the presence of 0260 and treated with H2O2 (2), and from untreated cells (3). Fer was immuno-precipitated, resolved in SDS-PAGE and reacted with anti-phosphotyrosine (pY— upper panel) or anti-Fer antibodies (lower panel) in a western blot analysis.
After extraction of cellular proteins, a protein sample of 750-1000 μg was diluted 3fold with TGET buffer (20 mM Tris-HCl (Ph7.5), 1 mM EDTA, 0.1% Triton X100 and 10% Glycerol) with […] and protease inhibitors and incubated with the indicated antibody at a dilution of 1:100 overnight at 4° C. with shaking. At the end of the incubation, 25 μl Protein A/G suspension was added bound to agarose beads. The mixture was shaken for another 90 min at 4° C. The immune complex precipitate was obtained after centrifugation for 20 min at maximum speed and then washed three times in extraction buffer: twice with buffer TGET NaCl 150 mM and once with TGET NaCl 75 mM. The precipitate was suspended in 2× loading buffer. […]

T1 sequence (P16591 whole entry): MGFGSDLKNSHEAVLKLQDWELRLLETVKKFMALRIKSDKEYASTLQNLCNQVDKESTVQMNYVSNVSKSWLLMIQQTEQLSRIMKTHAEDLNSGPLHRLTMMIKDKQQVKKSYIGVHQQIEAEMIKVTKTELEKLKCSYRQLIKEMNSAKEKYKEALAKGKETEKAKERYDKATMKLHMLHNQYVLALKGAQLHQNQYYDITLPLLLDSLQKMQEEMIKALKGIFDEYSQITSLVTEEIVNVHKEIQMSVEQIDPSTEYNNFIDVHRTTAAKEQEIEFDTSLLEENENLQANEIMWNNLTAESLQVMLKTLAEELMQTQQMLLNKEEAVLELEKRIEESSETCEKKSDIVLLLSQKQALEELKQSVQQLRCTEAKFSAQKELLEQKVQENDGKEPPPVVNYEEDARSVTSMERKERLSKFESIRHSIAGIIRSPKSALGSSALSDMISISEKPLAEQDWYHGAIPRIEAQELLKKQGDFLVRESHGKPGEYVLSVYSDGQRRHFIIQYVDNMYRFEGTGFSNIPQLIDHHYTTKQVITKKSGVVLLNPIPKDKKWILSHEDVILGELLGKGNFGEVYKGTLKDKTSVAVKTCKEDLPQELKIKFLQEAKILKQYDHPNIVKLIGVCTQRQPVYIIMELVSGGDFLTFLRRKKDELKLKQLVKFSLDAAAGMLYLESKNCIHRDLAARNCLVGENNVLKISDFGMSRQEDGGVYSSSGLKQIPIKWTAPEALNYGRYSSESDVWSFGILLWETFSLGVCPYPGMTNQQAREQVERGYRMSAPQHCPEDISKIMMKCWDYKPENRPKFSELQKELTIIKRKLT

Row | Compound | dead cells fraction [1] | dead cells fraction [2] | dead cells fraction (Hep3B liver cancer cells) | inhibition of Fer auto-phosphorylation (Fer)
1 | O=CC[C@@H](O)[C@H](O)[C@H](O)CO [DG, 2-deoxyglucose, reference compound] | only minor effects | only minor effect | only minor effect | –
2 | CC(C)c1ccc(-c2cn3nc(N4CCC(CN5CCN(C)CC5)CC4)sc3n2)cc1 [compound 0260, 6-(4-isopropyl-phenyl)-2-{4-[(4-methyl-piperazin-1-yl)methyl]piperidin-1-yl}imidazo[2,1-b][1,3,4]thiadiazole] | only minor effects | only minor effect | only minor effect | efficient inhibition
